Experimental data published in patent publication US10041937B2, “Macrophage identification agent, and identification method, sorting method, evaluation method, screening method and kit using the macrophage identifier agent” (CANON KABUSHIKI KAISHA, priority 2013, dated 2018).

Tested on: M1 macrophages and M2 macrophages differentiated from mouse bone marrow cells
Assay: Subtype identification by staining and flow cytometry of M1 and M2 macrophages differentiated from mouse bone marrow cells
Type: cell-based, Balb/c mouse
Conditions: for Selectivity: subtype strongly stained
Description: The culture of subtypes was performed according to a protocol described in NPL 7. Specifically, bone marrow cells collected from the femur of a Balb/c mouse of 8 to 10 weeks old were dispersed to a concentration of 1×10^6/mL in an IMDM containing 20% FBS and 1% P/S, and 1×10^7 cells were seeded in a 100 mm dish. After further adding an M-CSF (manufactured by Pepro Tech) thereto to a concentration of 50 ng/mL, the cells were incubated for 3 to 4 days in the presence of 5% CO2 at 37° C., so as to differentiate macrophage precursor cells to macrophages. After exchanging the medium, the M-CSF was added to a concentration of 50 ng/mL, and the incubation was performed for further 3 to 4 days in the presence of 5% CO2 at 37° C., and then, the resulting cells were differentiated to macrophage. By adding 200 ng of interferon-γ and 1 μg of […] (both manufactured by Pepro Tech) to the IMDM containing 5% FBS and 1% P/S, the cells were differentiated to the subtype M1. Besides, by adding 100 ng of IL-4 to the IMDM containing 5% FBS and 1% P/S, the cells were differentiated to the subtype M2. After performing the incubation for further 3 days in the presence of 5% CO2 at 37° C., the resultant was rinsed with PBS, and PBS containing 0.25% trypsin and 1 mM EDTA (ethylenediaminetetraacetic acid) was used for collecting, from the dish, the macrophages having been differentiated to the subtypes M1 and M2.
Thereafter, the tube was centrifuged at 180 G for 10 minutes to remove the supernatant, a dye for identifying dead cells (aqua fluorescent reactive dye, manufactured by Invitrogen; which is hereinafter sometimes abbreviated as aqua) was added thereto, and the resultant was incubated at 4° C. for 10 minutes. Subsequently, the tube was centrifuged at 180 G for 10 minutes to remove the supernatant, cells were suspended in a FACS buffer to be analyzed by using FACSCanto (trademark) II flow cytometry apparatus manufactured by BD.
The analysis was performed on a cell population showing a low signal for the aqua, so as to analyze a cell population from which dead cells were eliminated. […] A histogram was prepared by plotting fluorescence intensity obtained in the FITC channel on the abscissa and plotting the number of cells at each fluorescence intensity on the ordinate, which is shown in FIG. 2.
Histograms were prepared by plotting fluorescence intensities obtained in the respective channels on the abscissa and plotting the numbers of cells at each fluorescence intensity on the ordinate. A difference between a fluorescence intensity (FM1) at a peak top of the histogram of the M1 macrophage and a fluorescence intensity (FM2) at a peak top of the histogram of the M2 macrophage is divided by a sum of a peak width (WM1) of the histogram of the M1 macrophage and a peak width (WM2) of the histogram of the M2 macrophage, so as to obtain a resolution R, which was used as an index of the identification ability for a subtype (see the following expression (1)). Resolution R=|FM1−FM2|/(WM1+WM2) Expression (1)

[1] = R=|FM1−FM2|/(WM1+WM2), compound 1 μM
[2] = fluorescence intensity at peak top of histogram, compound 1 μM, 37° C., 30 minutes
[3] = M1 vs M2 macrophages from mouse bone marrow cells, general formula (10) dyes (Table 8)
[4] = class based on resolution R, general formula (10) dyes (Table 8)
[5] = mouse bone marrow-derived M1 macrophages, channel listed per compound, general formula (10) dyes (Table 8)
[6] = mouse bone marrow-derived M2 macrophages, channel listed per compound, general formula (10) dyes (Table 8)
[7] = M1 vs M2 macrophages from mouse bone marrow cells, general formula (6) dyes (Table 7)
[8] = class based on resolution R, general formula (6) dyes (Table 7)
[9] = mouse bone marrow-derived M1 macrophages, channel listed per compound, general formula (6) dyes (Table 7)
[10] = mouse bone marrow-derived M2 macrophages, channel listed per compound, general formula (6) dyes (Table 7)

SMILES	Resolution ratio R [1]	Peak position of M1 macrophage [2]	Peak position of M2 macrophage [2]	Evaluation of macrophage subtype identification (rated from resolution R)	further results
COC(=O)C(C)N1C(=O)/C(=C\c2ccc3c(c2)C2CCCC2N3c2ccc(OC)cc2)SC1=S (stereo not drawn) [(7)]	0.567	65.4	23.6	A (The compound is very good in the subtype identification (namely, the resolution R is 0.5 or more))	–
O=C(O)CCN1C(=O)/C(=C\c2ccc3c(c2)C2CCCC2N3c2ccc(C=C(c3ccccc3)c3ccccc3)cc2)SC1=S (stereo not drawn) [(32)]	0.476	88.7	155	B (the compound is good in the subtype identification (namely, the resolution R is 0.15 or more and less than 0.5))	–
CCN(CC)c1ccc2cc(-c3nc4ccccc4n3C)c(=O)oc2c1 [(119)]	–	–	–	–	Resolution ratio R [3]: 0.273; Evaluation of macrophage subtype identification [4]: B (the compound is good in the subtype identification (namely, the resolution R is 0.15 or more and less than 0.5)); Peak position of M1 macrophage [5]: 2.60; Peak position of M2 macrophage [6]: 3.94
COc1ccc(N2c3ccc(/C=C/C4=[N+](CCC(=O)O)c5ccc6ccccc6c5C4(C)C)cc3C3CCCC32)cc1 (stereo not drawn) [(60)]	0.621	4.55	7.65	A (The compound is very good in the subtype identification (namely, the resolution R is 0.5 or more))	–
CCN(CC)c1ccc2cc(-c3nc4ccccc4[nH]3)c(=O)oc2c1 [(131)]	–	–	–	–	Resolution ratio R [3]: 0.480; Evaluation of macrophage subtype identification [4]: B (the compound is good in the subtype identification (namely, the resolution R is 0.15 or more and less than 0.5)); Peak position of M1 macrophage [5]: 8.06; Peak position of M2 macrophage [6]: 13.5
CCN1C(=O)S/C(=c2/s/c(=C/c3ccc4c(c3)C3CCCC3N4c3ccc(OC)cc3)c(=O)n2CC(=O)O)C1=O (stereo not drawn) [(44)]	0.330	24.5	12.9	B (the compound is good in the subtype identification (namely, the resolution R is 0.15 or more and less than 0.5))	–
O=C(O)CN1C(=O)/C(=C\c2ccc3c(c2)C2CCCC2N3c2ccc(C=C(c3ccccc3)c3ccccc3)cc2)SC1=S (stereo not drawn) [(31)]	0.248	65.1	89.0	B (the compound is good in the subtype identification (namely, the resolution R is 0.15 or more and less than 0.5))	–
COc1ccc(N2c3ccc(/C=C/C4=[N+](C)c5ccccc5C4(C)C)cc3C3CCCC32)cc1 (stereo not drawn) [(62)]	0.561	193	333	A (The compound is very good in the subtype identification (namely, the resolution R is 0.5 or more))	Selectivity: M2
O=C(O)Cn1c(=O)/c(=C\c2ccc3c(c2)C2CCCC2N3Cc2ccccc2)s/c1=C1/SC(=S)N(Cc2ccccc2)C1=O (stereo not drawn) [(53)]	0.650	128	190	A (The compound is very good in the subtype identification (namely, the resolution R is 0.5 or more))	–
CCN(CC)c1ccc2cc(C(=O)c3cc4ccc(N(CC)CC)cc4oc3=O)c(=O)oc2c1 [comparative compound (4), reference compound]	–	–	–	–	Resolution ratio R [3]: 0.053; Evaluation of macrophage subtype identification [4]: C (the compound cannot identify the subtypes (namely, the resolution R is less than 0.15)); difference in the staining intensity between the M1 macrophages and the M2 macrophages / identification (mouse bone marrow derived): no difference in the staining intensity; Peak position of M1 macrophage [5]: 0.88; Peak position of M2 macrophage [6]: 1.05; Selectivity (general formula (10) dyes (Table 8)): No
CCOC(=O)CN1C(=O)/C(=C\c2ccc3c(c2)C2CCCC2N3c2ccc(OC)cc2)SC1=S (stereo not drawn) [(21)]	0.351	40.0	20.3	B (the compound is good in the subtype identification (namely, the resolution R is 0.15 or more and less than 0.5))	–
CCCN1c2ccc(/C=C3/SC(=S)N(CCC(=O)O)C3=O)cc2C2CCCC21 (stereo not drawn) [(9)]	0.828	2.63	6.69	A (The compound is very good in the subtype identification (namely, the resolution R is 0.5 or more))	–
COc1ccc2cc(N3c4ccc(/C=C5\C(=O)N(c6ccc(C(=O)O)cc6)N=C5C)cc4C4CCCC43)ccc2c1 (stereo not drawn) [(36)]	0.344	5.70	3.82	B (the compound is good in the subtype identification (namely, the resolution R is 0.15 or more and less than 0.5))	–
O=C(O)CN1C(=O)/C(=C\c2ccc3c(c2)C2CCCC2N3c2ccccc2)SC1=S (stereo not drawn) [(24)]	0.347	18.1	27.6	B (the compound is good in the subtype identification (namely, the resolution R is 0.15 or more and less than 0.5))	–
CC1=NN(c2ccc(C(=O)O)cc2)C(=O)/C1=C\c1ccc2c(c1)C1CCCC1N2c1ccccc1 (stereo not drawn) [(35)]	0.192	1.15	1.29	B (the compound is good in the subtype identification (namely, the resolution R is 0.15 or more and less than 0.5))	–
CCN1c2ccc(/C=C3/SC(=S)N(CC(=O)O)C3=O)cc2C2CCCC21 (stereo not drawn) [(26)]	0.202	3.51	4.49	B (the compound is good in the subtype identification (namely, the resolution R is 0.15 or more and less than 0.5))	–
CC1(C)C(/C=C/C=C/C=C/C=C2\N(CCCCS(=O)(=O)[O-])c3ccccc3C2(C)C)=[N+](CCCCS(=O)(=O)[O-])c2ccccc21.[Na+] [(90)]	–	–	–	–	Resolution ratio R [7]: 0.321; Evaluation of macrophage subtype identification [8]: B (the compound is good in the subtype identification (namely, the resolution R is 0.15 or more and less than 0.5)); Peak position of M1 macrophage [9]: 0.86; Peak position of M2 macrophage [10]: 1.31
CC1(C)C(/C=C/C=C/C=C/C=C2\N(CCCCS(=O)(=O)[O-])c3ccccc3C2(C)C)=[N+](CCCCS(=O)(=O)[O-])c2ccccc21.[Na+] [(88)]	–	–	–	–	Resolution ratio R [7]: 0.241; Evaluation of macrophage subtype identification [8]: B (the compound is good in the subtype identification (namely, the resolution R is 0.15 or more and less than 0.5)); Peak position of M1 macrophage [9]: 0.95; Peak position of M2 macrophage [10]: 1.48
